Experimental data published in the supplement of paper PMC10307832.

How the values were obtained:
Test in all cases: relative viability (nuclei count vs DMSO), 5 days (fraction); higher = more cells survive
Adavosertib + Bortezomib = compound: C=CCn1c(=O)c2cnc(Nc3ccc(N4CCN(C)CC4)cc3)nc2n1-c1cccc(C(C)(C)O)n1 [Adavosertib] + CC(C)C[C@H](NC(=O)[C@H](Cc1ccccc1)NC(=O)c1cnccn1)B(O)O [Bortezomib] (partner 0.002 µM)
Outline: (§1)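 Cells from lung cancer lines were seeded into 1536-well plates and, one day later, dosed by pin tool. Treatments were either a single drug or a fixed dose of an anchor drug with five library-drug doses (not always all listed) in √10 steps. After 5 days, nuclei were stained in a one-step fixation (final 0.05% Triton X-100, 1% formaldehyde, 1 ug/ml Hoechst) and counted on 4× images, and relative viability is the treated-to-vehicle nuclei ratio, as the median of duplicate plates.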

Adavosertib + Luminespib = compound: C=CCn1c(=O)c2cnc(Nc3ccc(N4CCN(C)CC4)cc3)nc2n1-c1cccc(C(C)(C)O)n1 [Adavosertib] + CCNC(=O)c1noc(-c2cc(C(C)C)c(O)cc2O)c1-c1ccc(CN2CCOCC2)cc1 [Luminespib] (partner 0.01 µM)
Outline: as §1

Adavosertib + Phenformin = compound: C=CCn1c(=O)c2cnc(Nc3ccc(N4CCN(C)CC4)cc3)nc2n1-c1cccc(C(C)(C)O)n1 [Adavosertib] + N=C(N)NC(=N)NCCc1ccccc1 [Phenformin] (partner 250 µM)
Outline: as §1

Nelarabine + Dasatinib = compound: COc1nc(N)nc2c1ncn2[C@@H]1O[C@H](CO)[C@@H](O)[C@@H]1O [Nelarabine] + Cc1nc(Nc2ncc(C(=O)Nc3c(C)cccc3Cl)s2)cc(N2CCN(CCO)CC2)n1 [Dasatinib] (partner 0.075 µM)
Outline: as §1

EMC-BAC-2
relative viability (Adavosertib + Bortezomib; first compound 0.01 µM): 0.987 | relative viability (Adavosertib + Bortezomib; first compound 0.03162 µM): 0.989 | relative viability (Adavosertib + Bortezomib; first compound 0.1 µM): 1.06 | relative viability (Adavosertib + Bortezomib; first compound 0.3162 µM): 1.04 | relative viability (Adavosertib + Luminespib; first compound 0.01 µM): 1.14 | relative viability (Adavosertib + Luminespib; first compound 0.03162 µM): 1.25 | relative viability (Adavosertib + Luminespib; first compound 0.1 µM): 1.18 | relative viability (Adavosertib + Luminespib; first compound 0.3162 µM): 1.11 | relative viability (Adavosertib + Phenformin; first compound 0.01 µM): 0.547 | relative viability (Adavosertib + Phenformin; first compound 0.03162 µM): 0.557 | relative viability (Adavosertib + Phenformin; first compound 0.1 µM): 0.519 | relative viability (Adavosertib + Phenformin; first compound 0.3162 µM): 0.479 | relative viability (Nelarabine + Dasatinib; first compound 0.01 µM): 0.409 | relative viability (Nelarabine + Dasatinib; first compound 0.03162 µM): 0.348 | relative viability (Nelarabine + Dasatinib; first compound 0.1 µM): 0.304 | relative viability (Nelarabine + Dasatinib; first compound 0.3162 µM): 0.374 | relative viability (Nelarabine + Dasatinib; first compound 1 µM): 0.356
